Broadly, the inhibition is the relative decrease from the control value, in per cent. In general, melting point refers to the temperature, or range, at which the solid turns liquid.

In patent US6506778B2, “Acylphenylurea derivatives, a process for their preparation and their use as pharmaceuticals” (Aventis Pharma Deutschland GmbH, priority 2000, dated 2003) one finds inhibition and melting point data, which are given here for 1 compound.

Data set [1] addresses T1, human glycogen phosphorylase a (Homo sapiens, UniProt P06737).
T1 sequence (P06737 1-847): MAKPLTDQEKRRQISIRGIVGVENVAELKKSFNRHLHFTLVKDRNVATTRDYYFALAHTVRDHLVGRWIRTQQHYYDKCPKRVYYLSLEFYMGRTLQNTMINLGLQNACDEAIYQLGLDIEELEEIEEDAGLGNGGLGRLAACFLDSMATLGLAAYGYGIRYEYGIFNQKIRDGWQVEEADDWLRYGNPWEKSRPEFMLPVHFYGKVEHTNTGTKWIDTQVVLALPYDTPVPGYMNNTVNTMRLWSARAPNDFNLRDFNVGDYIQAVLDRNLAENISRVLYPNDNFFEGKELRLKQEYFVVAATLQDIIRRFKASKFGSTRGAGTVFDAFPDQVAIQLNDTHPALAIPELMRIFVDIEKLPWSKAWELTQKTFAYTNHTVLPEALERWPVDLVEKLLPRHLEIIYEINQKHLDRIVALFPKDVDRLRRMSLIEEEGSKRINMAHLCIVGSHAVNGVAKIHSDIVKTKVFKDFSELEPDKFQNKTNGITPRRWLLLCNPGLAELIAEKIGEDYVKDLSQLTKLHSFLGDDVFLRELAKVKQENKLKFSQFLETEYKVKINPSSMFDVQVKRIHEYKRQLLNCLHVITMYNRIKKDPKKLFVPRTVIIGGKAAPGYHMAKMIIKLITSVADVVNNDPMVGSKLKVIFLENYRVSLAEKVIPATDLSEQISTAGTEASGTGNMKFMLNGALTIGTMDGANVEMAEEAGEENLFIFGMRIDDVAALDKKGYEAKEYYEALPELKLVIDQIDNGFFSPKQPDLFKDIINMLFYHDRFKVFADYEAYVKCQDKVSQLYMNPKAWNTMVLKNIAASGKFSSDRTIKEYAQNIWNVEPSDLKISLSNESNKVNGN
The experiment in a line: Glycogen phosphorylase a activity assay (reverse direction, liberation of inorganic phosphate). The class given is biochemical. To be noted: 10 μM test substance; in vitro; incubated at room temperature for 40 minutes; absorption at 820 nm. The protocol:
Glycogen Phosphorylase a Activity Assay
The effect of compounds on the activity of the active form of glycogen phosphorylase (GPa) was measured in the reverse direction by following the synthesis of glycogen from glucose 1-phosphate by determining the liberation of inorganic phosphate. All the reactions were carried out as duplicate determinations in microtiter plates with 96 wells (Half Area Plates, Costar No 3696), measuring the change in absorption owing to the formation of the reaction product at the wavelength specified hereinafter in a Multiskan Ascent Elisa Reader (Lab Systems, Finland).
In order to measure the GPa enzymic activity in the reverse direction, the general method of Engers et al. (Engers H D, Shechosky S, Madsen N B, Can J Biochem 1970 July; 48(7):746-754) was used to measure the conversion of glucose 1-phosphate into glycogen and inorganic phosphate. […] The baseline glycogen phosphorylase a activity in the absence of test substance was determined by adding 10 μl of buffer solution T (0.1% DMSO). […] After incubation at 45° C. for 60 minutes, the absorption at 820 nm was measured. […]

`O=C(O)CCCCCOc1c(Cl)cc(NC(=O)NC(=O)c2ccccc2Cl)cc1Cl` [Example 1, 6-{2,6-Dichloro-4-[(2-chlorobenzoyl)ureido]phenoxy}hexanoic Acid] displayed a melting point of 164 °C. For the same compound, the inhibition at 10 µM in data set [1] is 87%.
